The results in this text go back to US7651978B2, “Selective herbicides based on a substituted phenylsulphonylaminocarbonyl-triazolinone” (Arysta LifeScience North America, LLC, priority 1998, dated 2010).

In data set [1] the test system is Wheat. The data set is described as follows: Post-emergence test/greenhouse. Type of data set: in vivo. To be noted: post-emergence, 60 g ai./ha, after three weeks; 0%=no effect, 100%=total destruction. As for the experimental part:
(§1) Post-Emergence Test/Greenhouse [table] To produce a suitable preparation of active compound, 1 part by weight of active compound is mixed with the stated amount of solvent, the stated amount of emulsifier is added and the concentrate is diluted with water to the desired concentration. Test plants which have a height of 5-15 cm are sprayed with the preparation of active compound such that the particular amounts of active compound desired are applied per unit area. The concentration of the spray liquor is chosen so that the particular amounts of active compound desired are applied in 500 ml of water/ha. After three weeks, the degree of damage to the plants is assessed in % damage in comparison to the development of the untreated control. The figures denote: • 0%=no effect (like untreated control) • 100%=total destruction

The next data set concerns Lolium. Put plainly: Post-emergence test/greenhouse. To be noted: 60 g ai./ha, after three weeks. Format: in vivo. As for the experimental part:
as §1

Data set [2] has as its system Alopecurus. The data set is described as follows: Post-emergence test/greenhouse. Format: in vivo. Particulars: 504 h, 60 g ai./ha, after three weeks, read-out: degree of damage, Alopecurus. The method, then:
as §1

For the next data set, the system named is Veronica. The data set is described as follows: Post-emergence test/greenhouse. Type of data set: in vivo. Particulars: 60 g ai./ha, after three weeks. The method, then:
as §1

Data set [3] has as its system Wheat. Put plainly: Pre-emergence test/greenhouse. Format: in vivo. Particulars: pre-emergence; for degree of damage, Wheat: 30 g of ai./ha, after three weeks, 0%=no effect, 100%=total destruction. The method, then: (§2) Pre-Emergence Test/Greenhouse Solvent: 5 parts by weight of acetone Emulsifier: 1 part by weight of alkylaryl polyglycol ether To produce a suitable preparation of active compound, 1 part by weight of active compound is mixed with the stated amount of solvent, the stated amount of emulsifier is added and the concentrate is diluted with water to the desired concentration. Seeds of the test plants are sown in normal soil. After about 24 hours, the soil is sprayed with the preparation of active compound such that the particular amount of active compound desired is applied per unit area. The concentration of the spray liquor is chosen so that the particular amount of active compound desired is applied in 500 ml of water per hectare. After three weeks, the degree of damage to the plants is assessed in % damage in comparison to the development of the untreated control. The figures denote: • 0%=no effect (like untreated control) • 100%=total destruction

The subject of the next data set is Polygonum. The data set is described as follows: Pre-emergence test/greenhouse. To be noted: 30 g of ai./ha, after three weeks. Type of data set: in vivo. The method, then:
as §2

The subject of the next data set is Avena. Put plainly: Pre-emergence test/greenhouse. Type of data set: in vivo. To be noted: 504 h, 30 g of ai./ha, after three weeks, read-out: degree of damage, Avena. As for the experimental part: as §2
Data set [4] deals with Alopecurus. The data set is described as follows: Pre-emergence test/greenhouse. To be noted: 504 h, 30 g of ai./ha, after three weeks, read-out: degree of damage, Alopecurus. Format: in vivo. As for the experimental part: as §2
For data set [5], the system named is wheat. The data set is described as follows: Post-emergence tests/outdoors (Example C, Canada), crop damage. Format: in vivo, summer wheat. To be noted: outdoors, 70 WP, 9 tests, 1 to 8 weeks after treatment. As for the experimental part: (§3) Post-Emergence Tests/Outdoors In addition to the comparative compounds (B) and (D), the sodium salt of the compound of the formula (I) was tested under outdoor conditions in the main cultivation areas of summer wheat in Canada against economically important weeds. The small-plot experiments were carried out on cultivated land under agricultural use. Areas with particularly extensive weed growth were chosen preferably. The active compounds were applied across the area by the spray method, with an average droplet size. To produce a useful preparation of active compound, the active compounds were formulated as 70 WP (70% w/w water-dispersible powder) and applied with customary amounts of water. Wetting of the plants was improved by addition of a surface-active substance (SAS) in the concentrations recommended by the respective manufacturer. To assess the crop compatibility, from 1 to 8 weeks after the treatment, plant growth inhibitions or […] of the leaf area were assessed in % damage in comparison to the development of the untreated control. At different intervals after the treatment, the herbicidal activity was assessed as % reduction in comparison to the untreated control, based on the weed development. The figures denote: • 0%=no damage of the crops or no herbicidal effect, • 100%=total destruction of the crops or the weeds.

Another data set has as its system Avena fatua. Put plainly: Post-emergence tests/outdoors (Example C, Canada). Format: in vivo. To be noted: outdoors, 70 WP, 6 tests. As for the experimental part:
as §3

The next data set deals with Fallopia convolvulus. The data set is described as follows: Post-emergence tests/outdoors (Example C, Canada). Format: in vivo. Particulars: outdoors, 70 WP, 5 tests. The method, then:
as §3

The test system of the next data set is Setaria viridis. The data set is described as follows: Post-emergence tests/outdoors (Example C, Canada). Format: in vivo. Particulars: outdoors, 70 WP, 5 tests. The method, then: as §3
The subject of the next data set is Thlaspi arvense. The data set is described as follows: Post-emergence tests/outdoors (Example C, Canada). Type of data set: in vivo. Particulars: outdoors, 70 WP, 3 tests. The method, then:
as §3

For a further data set, the system named is Sinapis arvensis. Put plainly: Post-emergence tests/outdoors (Example C, Canada). Format: in vivo. To be noted: outdoors, 70 WP, 5 tests. As for the experimental part:
as §3

In data set [6] the test system is weeds, such as Agropyron, Alopecurus, Avena, Bromus, Lolium, Setaria and Veronica. Put plainly: Post-emergence test/greenhouse, summary over weeds. Type of data set: in vivo. To be noted: cf. Table B1. The method, then:
as §1, with “[…] A considerable superiority of (I)-Na-salt (at 125 g/ha) over the comparative compounds (G) and (H) (in each case at 250 g/ha!) is shown in Table B2.” for “The figures denote: • 0%=no effect (like untreated control) • 100%=total destruction”

The subject of another data set is Digitaria. The data set is described as follows: Pre-emergence test/greenhouse. Type of data set: in vivo. To be noted: 30 g of ai./ha, after three weeks. As for the experimental part: as §2
A further data set concerns Matricaria. Put plainly: Pre-emergence test/greenhouse. Format: in vivo. Particulars: 30 g of ai./ha, after three weeks. The method, then: as §2
The subject of data set [7] is weeds, such as Alopecurus, Avena, Bromus, Digitaria, Echinochloa, Matricaria, Polygonum and Setaria. The data set is described as follows: Pre-emergence test/greenhouse, summary over weeds. Particulars: cf. Table A1. Type of data set: in vivo. As for the experimental part:
Pre-Emergence Test/Greenhouse Solvent: 5 parts by weight of acetone Emulsifier: 1 part by weight of alkylaryl polyglycol ether To produce a suitable preparation of active compound, 1 part by weight of active compound is mixed with the stated amount of solvent, the stated amount of emulsifier is added and the concentrate is diluted with water to the desired concentration. Seeds of the test plants are sown in normal soil. After about 24 hours, the soil is sprayed with the preparation of active compound such that the particular amount of active compound desired is applied per unit area. The concentration of the spray liquor is chosen so that the particular amount of active compound desired is applied in 500 ml of water per hectare. After three weeks, the degree of damage to the plants is assessed in % damage in comparison to the development of the untreated control. […] Table A1). The considerable superiority of (I)-Na-salt over the comparative compound (G) is shown in Table A2 [“ai.”=“active ingredient”].

[8] abbreviates: 30 g of a.i./ha + SAS (Canplus 411).
Where [9] appears, read: 15 g of a.i./ha + SAS (Canplus 411).

Consider `CCOc1nn(C(=O)NS(=O)(=O)c2ccccc2OC(F)(F)F)c(=O)n1C` [(B), 2-(2-Trifluoromethoxy-phenylsulphonylaminocarbonyl)-4-methyl-5-ethoxy-2,4-dihydro-3H-1,2,4-triazol-3-one], for which the figures for the “degree of damage, Wheat” value with Wheat [1] and in the data set on Wheat [3] were 0% and 50%, respectively. The “degree of damage, Lolium” value with Lolium is 70%. Moreover, the pest or weed control at 60 g/ha with Alopecurus [2] was determined as 40%. For the same compound, the “degree of damage, Veronica” value with Veronica is 70%. Further, the “compatibility with crop plants (wheat), in words” value in the data set on Wheat [3] (cf. Table A1) is “not compatible with wheat”. For the same compound, in the data set with Polygonum, the “degree of damage, Polygonum” value came out at 80%. Besides, the values for the pest or weed control at 30 g/ha in the data set with Avena and with Alopecurus [4] were 80% and 70%, respectively. Besides, in the data set with wheat [5] (setting [8]), the “Crop damage (wheat)” value was 5%. The “herbicidal effect (%), Avena fatua” value with Avena fatua (setting [8]) is 69%. In addition, in the data set with Fallopia convolvulus (setting [8]), the “herbicidal effect (%), Fallopia convolvulus” value was 71%. The “herbicidal effect (%), Setaria viridis” value in the data set on Setaria viridis (setting [8]) was determined as 95%. Further, in the data set on Thlaspi arvense (setting [8]), the “herbicidal effect (%), Thlaspi arvense” value is given as 97%. Also, in the data set on Sinapis arvensis (setting [8]), the “herbicidal effect (%), Sinapis arvensis” value is recorded as 97%. In [6], the “herbicidal activity (in words, compared with (I)-Na-salt)” value is “considerably weaker herbicidal activity”.

As to `COc1nn(C(=O)NS(=O)(=O)c2ccccc2C(F)(F)F)c(=O)n1C` [(D), 2-(2-Trifluoromethyl-phenylsulphonylaminocarbonyl)-4-methyl-5-methoxy-2,4-dihydro-3H-1,2,4-triazol-3-one], the “degree of damage, Wheat” value in the data set with Wheat [1] and in the data set with Wheat [3] was 0% in each case. In the data set with Veronica, the “degree of damage, Veronica” value is reported as 0%. Also, the “degree of damage, Polygonum” value in the data set on Polygonum stood at 70%. In addition, in the data set with Digitaria, the “degree of damage, Digitaria” value is listed as 80%. Also, the “degree of damage, Matricaria” value in the data set on Matricaria turned out to be 30%. The pest or weed control at 30 g/ha is 50% with Avena and 70% with Alopecurus [4]. For the same compound, the “Crop damage (wheat)” value with wheat [5] (setting [9]) is reported as 12%. For the same compound, the “herbicidal activity (in words, compared with (I)-Na-salt)” value in data set [7] and in [6] was “considerably weaker herbicidal activity” in each case. Besides, the “herbicidal effect (%), Avena fatua” value in the data set with Avena fatua (setting [9]) is reported as 65%. Further, the “herbicidal effect (%), Fallopia convolvulus” value with Fallopia convolvulus (setting [9]) is reported as 70%. Also, the “herbicidal effect (%), Setaria viridis” value in the data set with Setaria viridis (setting [9]) was 81%. Besides, the “herbicidal effect (%), Thlaspi arvense” value with Thlaspi arvense (setting [9]) came to 95%. The “herbicidal effect (%), Sinapis arvensis” value with Sinapis arvensis (setting [9]) is reported as 95%.
